Values belong to the compound of their own block, whether it stands above or below them.
Legend:
[1] = Hygroscopicity observed on isolation of the adduct; format: physicochemical; settings: on air, after filtration under nitrogen
Protocol: To a solution of TCG (0.30 g) in dry MeCN (4 mL) at 60° C. MgCl2 (60 mg) was added in one portion, and the resulting reaction mixture was stirred at 60° C. for 16 h.
To a solution of TCG (0.20 g) in dry MeCN (5 mL) at 50° C. MgBr2 (74 mg) was added in one portion, and the resulting reaction mixture was stirred at 50° C. for 15 min.

[2] = general statement in the description; cited from earlier work
[3] = Physical stability at room temperature (DSC), adduct compared to amorphous TCG; format: physicochemical
Protocol: The so obtained Ia was left at room temperature in a closed vial to test physical stability. DSC analysis was performed after 21 days (FIG. 2) and after 31 days (FIG. 3).
DSC analysis of a sample was performed immediately (FIG. 4). Another sample of the so obtained Ia was left at room temperature to test physical stability.
TCG (0.52 g) was dissolved in 55 mL of aqueous ethanol (50 vol %) with the aid of ultrasonic irradiation. To the solution 33 mL water was poured at once and the obtained turbid mixture was frozen immediately in liquid nitrogen. The material was then lyophilized for 72 h at ˜0.8 mbar. DSC analysis of a sample was performed immediately (FIG. 6). Another sample of the so obtained amorphous TCG was left at room temperature to test physical stability.
Conditions for obtaining DSC thermograms: Thermograms were obtained with Mettler Toledo DSC822e differential scanning calorimeter. The sample (1-10 mg) was placed in an unsealed aluminium pan with a hole and heated at 10° C./min in the temperature range from 30° C. to 250° C.

- hygroscopicity [1]: hygroscopic on air
Structure (SMILES): CCCSc1nc(N[C@@H]2C[C@H]2c2ccc(F)c(F)c2)c2nnn([C@@H]3C[C@H](OCCO)[C@@H](O)[C@H]3O)c2n1 [Ib]

Structure (SMILES): CCCSc1nc(N[C@@H]2C[C@H]2c2ccc(F)c(F)c2)c2nnn([C@@H]3C[C@H](OCCO)[C@@H](O)[C@H]3O)c2n1 [Ticagrelor, 3-[7-[[(1R,2S)-2-(3,4-difluorophenyl)cyclopropyl]amino]-5-(propylthio)-3H-1,2,3-triazolo[4,5-d]pyrimidin-3-yl]-5-(2-hydroxyethoxy)-(1S,2S,3R,5S)-1,2-cyclopentanediol]
- solubility in water [2]: low solubility in water

Structure (SMILES): CCCSc1nc(N[C@@H]2C[C@H]2c2ccc(F)c(F)c2)c2nnn([C@@H]3C[C@H](OCCO)[C@@H](O)[C@H]3O)c2n1 [amorphous basic ticagrelor]
- chemical and physical stability (conversion of amorphous state to crystalline form) [3]: quickly converts to the more stable crystalline forms

— patent publication US9284320B2, “Ticagrelor adducts with divalent metal salts” (Lek Pharmaceuticals d.d., priority 2012, dated 2016)
